Experimental data from US20090105278A1, “Selective inhibitors of human corticosteroid syntheses” (Universitat Des Saarlandes, priority 2004, published 2009).
Where a name gives a salt, the structure may show the parent alone. Read-outs that look alike come from different tables or passages of the source.

What was measured:
CYP11B2 in NCI-H295R = target: T1, CYP11B2 in NCI-H295R (Homo sapiens, UniProt P19099); experiment: NCI-H295R cells, CYP11B2 inhibition (substrates corticosterone B or deoxycorticosterone DOC); format: cell-based; conditions: for inhibition at 2.5 µM: NCI-H295R
T1 construct: contain 5 steroidogenic CYP450 enzymes, including 17-alpha-hydroxylase, CYP11B1 and CYP11B2; endogenous in cells; host or cells: NCI-H295R
T1 sequence (P19099 25-503): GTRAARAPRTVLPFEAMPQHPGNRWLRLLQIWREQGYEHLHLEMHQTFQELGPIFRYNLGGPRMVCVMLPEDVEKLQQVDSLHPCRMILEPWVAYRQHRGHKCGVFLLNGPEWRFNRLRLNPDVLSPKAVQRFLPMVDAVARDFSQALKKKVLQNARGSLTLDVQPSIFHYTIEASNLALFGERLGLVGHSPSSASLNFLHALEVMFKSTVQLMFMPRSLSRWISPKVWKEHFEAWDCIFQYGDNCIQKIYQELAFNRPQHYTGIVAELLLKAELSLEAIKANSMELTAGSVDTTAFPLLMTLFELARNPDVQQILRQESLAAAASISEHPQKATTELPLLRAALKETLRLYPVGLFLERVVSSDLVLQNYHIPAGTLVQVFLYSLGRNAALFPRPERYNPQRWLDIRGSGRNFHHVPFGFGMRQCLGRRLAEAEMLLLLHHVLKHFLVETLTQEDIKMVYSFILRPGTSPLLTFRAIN
Procedure: (§1) For testing inhibitors, a preincubation for one hour was performed first, followed by starting the enzyme reactions by adding substrate (500 nM).
(§2) A) Seeding: The cell lines were grown and passaged until a confluent cell lawn had formed. By tryptic treatment, the cell material of at least two culture dishes was obtained, and the number of cells determined by means of a CASY TT cell counter (150 μl capillary). […] With the cell material of two confluently grown culture dishes, two 24-well plates could be coated. After 24 hours, the cells had grown on, and after another 24 hours' stimulation phase with a solution containing potassium ions (final concentration: 20 mM KCl), could be employed for the test.
In the substrate solutions for the examinations on CYP11B2, the corticosterone substrate solution (final concentration in the test: 500 nM) consisted of 38.4 μl of [1,2-^3H(N)]corticosterone (1 mCi/ml, 76.5 Ci/mmol; NEN-Perkin-Elmer) in ethanol, 39.0 μl of unlabeled corticosterone solution (0.5 mM in ethanol) and 122.6 μl of ethanol. Deoxycorticosterone, which was also employed in a final concentration of 500 nM, was composed of 18 μl of [^14C]-labeled deoxycorticosterone (60.0 mCi/mmol; 0.5 nCi/μl) in ethanol in admixture with 54 μl of unlabeled substance (0.5 mM in ethanol) and 228 μl of ethanol.
(§3) Of this solution, 5 μl each was added to the samples.
(§4) Then, the 24-well plate was stored in a CO2 incubator at 37° C. and […]. The incubation time was 3 hours when deoxycorticosterone was used as the substrate, 24 Hours for corticosterone, and 48 hours for deoxycortisol.
Test stop: After elapse of the incubation times, the plates were briefly swung, and then the content of the wells was removed quantitatively if possible and inactivated by mixing with 1000 μl of dichloromethane in a 2 ml Eppendorf vessel. After 10 minutes of shaking, it was centrifuged for phase separation, and the […], organic phase was transferred into a 1.5 ml Eppendorf vessel.
After evaporating the solvent over night under a hood, the residue was taken up in 10 μl of chloroform and applied to the center of the concentration zone of an HPTLC plate.
For detecting the steroids on the TLC, the radiation-exposed film was scanned in the phosphoimager FLA 3000 after two days.
For the substrate corticosterone, equation 5 was valid: […]

CYP11B1 in NCI-H295R = target: T2, CYP11B1 in NCI-H295R (Homo sapiens, UniProt P15538); experiment: cell-based; conditions: read-out: NCI-H295R CYP11B1 RSS % inhibition
T2 sequence (P15538 25-503): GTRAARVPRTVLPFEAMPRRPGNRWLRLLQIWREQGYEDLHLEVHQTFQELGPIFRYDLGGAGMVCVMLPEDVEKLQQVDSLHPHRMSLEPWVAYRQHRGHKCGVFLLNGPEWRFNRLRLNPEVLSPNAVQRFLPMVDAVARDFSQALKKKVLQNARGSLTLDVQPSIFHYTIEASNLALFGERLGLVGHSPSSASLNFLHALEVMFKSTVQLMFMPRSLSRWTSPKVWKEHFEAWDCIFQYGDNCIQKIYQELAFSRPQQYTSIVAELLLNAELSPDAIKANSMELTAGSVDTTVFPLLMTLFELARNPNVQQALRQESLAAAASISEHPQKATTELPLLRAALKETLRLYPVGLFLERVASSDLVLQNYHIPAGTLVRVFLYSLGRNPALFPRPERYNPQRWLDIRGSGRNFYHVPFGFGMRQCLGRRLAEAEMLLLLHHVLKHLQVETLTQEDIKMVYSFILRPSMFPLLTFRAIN
Procedure: as §1, §2, §3, §4
Test stop: After elapse of the incubation times, the plates were briefly swung, and then the content of the wells was removed quantitatively if possible and inactivated by mixing with 1000 μl of dichloromethane in a 2 ml Eppendorf vessel. After 10 minutes of shaking, it was centrifuged for phase separation, and the […], organic phase was transferred into a 1.5 ml Eppendorf vessel. […]

Structure (SMILES): Fc1ccc2c(c1)CC/C2=C/c1cccnc1 [Compound 5b, 3-[(Z)-(5-Fluoro-2,3-dihydro-1H-indane-1-ylidene)methyl]pyridine Hydrochloride]
- IC50 (CYP11B2 in NCI-H295R; K+ stimulation 20 mM, substrate [3H]-corticosterone (B) 500 nM, incubation 24 h, read-out: NCI-H295R CYP11B2 B [IC50]): 17 µM
- inhibition at 2.5 µM (CYP11B2 in NCI-H295R; read-out: NCI-H295R CYP11B2 B % inhibition): 6.9%
- inhibition at 2.5 µM (CYP11B2 in NCI-H295R; read-out: NCI-H295R CYP11B2 DOC % inhibition): 89.2%
- IC50 (CYP11B2 in NCI-H295R; substrate [14C]deoxycorticosterone (DOC) 500 nM, incubation 3 h, read-out: NCI-H295R CYP11B2 DOC [IC50]): 0.156 µM
- inhibition at 2.5 µM (CYP11B1 in NCI-H295R): 73.1%
